Laboratory results reported in publication PMC8282186, “Identification of a gustatory receptor tuned to sinigrin in the cabbage butterfly Pieris rapae” (PLoS Genetics, 2021).

Molecular target: T1, PrapGr28 (Pieris rapae, UniProt Z9RYY0XAY3)
T1 construct: also UAS-PrapGr28 in Drosophila Gr5a sweet neurons; oligomer unknown
T1 sequence (Z9RYY0XAY3 1-399): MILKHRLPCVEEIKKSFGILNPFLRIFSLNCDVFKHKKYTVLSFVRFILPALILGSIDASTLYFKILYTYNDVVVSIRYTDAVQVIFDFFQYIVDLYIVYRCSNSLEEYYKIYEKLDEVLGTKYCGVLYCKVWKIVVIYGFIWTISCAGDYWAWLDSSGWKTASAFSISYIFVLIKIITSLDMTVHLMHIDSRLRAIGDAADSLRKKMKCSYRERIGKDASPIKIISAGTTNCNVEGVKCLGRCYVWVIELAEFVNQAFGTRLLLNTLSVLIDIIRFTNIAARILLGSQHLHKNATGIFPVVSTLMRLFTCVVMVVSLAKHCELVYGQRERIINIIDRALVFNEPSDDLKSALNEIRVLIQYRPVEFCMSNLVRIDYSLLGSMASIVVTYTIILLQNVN
Test: two-electrode voltage clamp, inward current in Xenopus oocytes
Assay type: cell-based
Conditions: agonist; PrapGr28 expressed alone; holding potential -80 mV; 0.1-50 mM dose range; also tip recording of Drosophila L-type sensilla expressing PrapGr28
Source text: two-electrode voltage clamp, inward current in Xenopus oocytes on […]28 | the oocytes expressing […]28 selectively responded to sinigrin

C=CC/C(=N/OS(=O)(=O)O)S[C@@H]1O[C@H](CO)[C@@H](O)[C@H](O)[C@H]1O [sinigrin]
inward current response at 1 mM: the oocytes expressing PrapGr28 selectively responded to sinigrin
